Read-outs that look alike come from different tables or passages of the source.
Tests used:
PDK1 kinase = molecular target: T1, PDK1 kinase (Homo sapiens, UniProt O15530); assay: PDK1 Kinase Alpha Screen Assay; format: biochemical; conditions: read-out: PDK1 IC50
T1 sequence (O15530 1-556): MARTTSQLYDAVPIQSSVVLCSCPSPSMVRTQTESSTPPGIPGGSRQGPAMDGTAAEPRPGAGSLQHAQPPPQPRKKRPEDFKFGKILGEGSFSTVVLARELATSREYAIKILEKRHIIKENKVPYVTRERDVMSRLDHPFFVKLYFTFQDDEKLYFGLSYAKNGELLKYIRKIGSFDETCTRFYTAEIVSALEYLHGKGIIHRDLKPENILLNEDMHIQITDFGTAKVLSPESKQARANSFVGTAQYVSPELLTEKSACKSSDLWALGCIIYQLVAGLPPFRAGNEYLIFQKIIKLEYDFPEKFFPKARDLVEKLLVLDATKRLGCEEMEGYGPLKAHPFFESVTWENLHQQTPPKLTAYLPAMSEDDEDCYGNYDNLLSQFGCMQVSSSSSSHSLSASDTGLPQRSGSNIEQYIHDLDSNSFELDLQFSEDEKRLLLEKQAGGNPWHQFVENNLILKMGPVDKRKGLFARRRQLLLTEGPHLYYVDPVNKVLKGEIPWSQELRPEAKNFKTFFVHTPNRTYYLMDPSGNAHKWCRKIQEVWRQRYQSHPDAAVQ
How it was run: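 Test compounds were incubated with PDK1 kinase, 10 uM ATP and 50 nM biotinylated peptide substrate for 3-18 hours at pH 7.5 with 2.5% DMSO. Peptide phosphorylation was then detected by AlphaScreen proximity luminescence using a phospho-(Ser/Thr) PKA substrate antibody.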

PC-3 cells = assay: Cell Proliferation Assay (Cell Titer Glo), PC-3 cell line; format: cell-based; conditions: Homo sapiens
How it was run: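 PC-3 cells, 1000 cells/well, left to adhere 3-5 h, then exposed for 3 days at 37° C to compounds as 1:3 serial dilutions from 500× DMSO stocks diluted in growth medium. Medium then replaced with fresh medium and viability read by Cell Titer Glo luminescence.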

[1] = PC-3, Cell Proliferation Assay, PC3, read-out: CPEC50 PC3
[2] = PC-3, 72 h, PC-3 cells, 3 days incubation, read-out: CP EC50 PC3
[3] = PC-3, PC3 cells, read-out: CPEC50 PC3

| SMILES | IC50 (PDK1 kinase; PDK1 Kinase Alpha Screen Assay) | EC50 (PC-3 cells; [1]) | IC50 (PDK1 kinase) | also measured |
| --- | --- | --- | --- | --- |
| Fc1cc(Nc2ncc3cccc(C4=CCNCC4)c3n2)ccc1N1CCOCC1 [Compound 460, N-(3-fluoro-4-morpholinophenyl)-8-(1,2,3,6-tetrahydropyridin-4-yl)quinazolin-2-amine] | < 5 µM | < 5 µM |  |  |
| O=C(NC1CC1)c1ccc(Nc2ncc3cccc(OC4CCNCC4)c3n2)cc1 [Compound 490, N-cyclopropyl-4-(8-(piperidin-4-yloxy)quinazolin-2-ylamino)benzamide] | < 5 µM | < 5 µM |  |  |
| c1cc(Nc2ncc3cccc(OC4CCNCC4)c3n2)cc(N2CCCC2)c1 [Compound 550, 8-(piperidin-4-yloxy)-N-(3-(pyrrolidin-1-yl)phenyl)quinazolin-2-amine] | < 5 µM | 5 to 10 µM |  |  |
| c1csc(-c2cc(OC3CCNCC3)c3nc(Nc4ccc(N5CCOCC5)cc4)ncc3c2)n1 [Compound 702, N-(4-morpholinophenyl)-8-(piperidin-4-yloxy)-6-(thiazol-2-yl)quinazolin-2-amine] | < 5 µM | < 5 µM |  |  |
| CC(C)N1CCC(Oc2ccc3cnc(Nc4ccc(N)c(Cl)c4)nc3c2)CC1 [Compound 62, 2-Chloro-N*4*-[7-(1-isopropyl-piperidin-4-yloxy)-quinazolin-2-yl] benzene-1,4-diamine] |  |  | < 5 µM | EC50 (PC-3 cells; [2]): 5 to 10 µM |
| OCCc1ccc(Nc2ncc3cccc(-c4ccc(NCCN5CCCC5)nc4)c3n2)cc1 [Compound 1019, 2-(4-(8-(6-(2-(pyrrolidin-1-yl)elhylamino)pyridin-3-yl)quinazolin-2-ylamino)phenyl)ethanol] |  |  | < 5 µM | EC50 (PC-3 cells; [3]): < 5 µM |
| NS(=O)(=O)c1ccc(Nc2ncc3cccc(-c4ccc(CN5CCOCC5)cc4)c3n2)cc1 [Compound 986, 4-(8-(4-(mopholinomethyl)phenyl)quinazolin-2-ylamino)benzenesulfonamide] |  |  | < 5 µM | EC50 (PC-3 cells; [3]): < 5 µM |
| CC(C)N1CCC(Oc2cccc3cnc(Nc4ccc(F)cc4)nc23)CC1 [Compound 83, (4-Fluoro-phenyl)-[8-(1-isopropyl-piperidin-4-yloxy)-quinazolin-2-yl]-amine] |  |  | < 5 µM | EC50 (PC-3 cells; [2]): 5 to 10 µM |
| CN1CCN(c2ccc(-c3cccc4cnc(Nc5ccc(N6CCOCC6)c(F)c5)nc34)cn2)CC1 [Compound 432, N-(3-fluoro-4-morpholinophenyl)-8-(6-(4-methylpiperazin-1-yl)pyridin-3-yl)quinazolin-2-amine] | < 5 µM | < 5 µM |  |  |
| CC(C)Cn1cc(-c2ccc3cnc(Nc4ccc(S(=O)(=O)NCCN5CCN(C)CC5)cc4)nc3c2)cn1 [Compound 712, 4-(7-(1-isobutyl-1H-pyrazol-4-yl)quinazolin-2-ylamino)-N-(2-(4-methylpiperazin-1-yl)ethyl)benzenesulfonamide] | < 5 µM |  |  | EC50 (PC-3 cells; PC-3, Cell Proliferation Assay, PC3 cells, read-out: CPEC50 PC3): < 5 µM |
| Clc1ccc(OC2CCNCC2)c2nc(Nc3cccc(N4CCOCC4)c3)ncc12 [Compound 601, 5-chloro-N-(3-morpholinophenyl)-8-(piperidin-4-yloxy)quinazolin-2-amine] | < 5 µM | 5 to 10 µM |  |  |
| C#Cc1cc(OC2CCN(C(C)C)CC2)c2nc(Nc3ccc(N4CCOCC4)cc3)ncc2c1 [Compound 698, 6-ethynyl-8-(1-isopropylpiperidin-4-yloxy)-N-(4-morpholinophenyl)quinazolin-2-amine] | < 5 µM | < 5 µM |  |  |
| CN1CCN(c2ccc(-c3cccc4cnc(Nc5ccc(S(N)(=O)=O)cc5)nc34)cc2)CC1 [Compound 985, 4-(8-(4-(4-methylpiperazin-1-yl)phenyl)quinazolin-2-ylamino)benzenesulfonamide] |  |  | < 5 µM | EC50 (PC-3 cells; [3]): < 5 µM |
| CN1CCC(Nc2ccc3cnc(Nc4ccc(C(=O)N5CCOCC5)cc4)nc3c2)CC1 [Compound 345, (4-(7-(1-methylpiperidin-4-ylamino)quinazolin-2-ylamino)phenyl)(morpholino)methanone] | < 5 µM | < 5 µM |  |  |
| CC(C)N1CCC(Oc2cccc3cnc(Nc4cccc(CC(N)=O)c4)nc23)CC1 [Compound 76, 2-{3-[8-(1-Isopropyl-piperidin-4-yloxy)-quinazolin-2-ylamino]-phenyl}-acetamide] |  |  | < 5 µM | EC50 (PC-3 cells; [2]): < 5 µM |

Source: US7932262B2 (Novartis AG, priority 2006, dated 2011)
